Results on 26 substances are retold here after US20060216299A1, “Cell cycle targets and peptides” (Rigel Pharmaceuticals, Inc., priority 2002, published 2006).

Where no end group is shown, it is not given here.

For data set [1], the system named is A549.tTA cells. The data set can be described thus: Cell tracker assay (Dil) of GFP fusion peptides. Type of data set: cell-based. The conditions noted are these: for anti-proliferative effect (cell tracker assay, in words): GFP-fused peptides expressed in A549.tTA cells; for cell death after infection of retrovirus encoding GFP fused peptides: A549.tTA cells, data not shown. On the procedure:
A549.tTA cells were infected with tet-regulatable retroviruses expressing GFP fusion peptides, stained with the cell tracker dye, Dil, and incubated at 37° C. for five days. After the incubation, fluorescent intensity of GFP and Dil was analyzed with MoFlo. A growth ratio was obtained as the ratio of mean Dil fluorescent intensity for the GFP positive population relative to that of the GFP negative population.
Effect of GFP fused peptides and their mutants. GFP fused peptides (#40, #41, #88 and their mutants) expressing A549.tTA cells were stained with Dil and fluorescent intensity of GFP and Dil was examined with MoFlo. A growth ratio was obtained as described above. Mutated residues were underlined. Amino acid sequences of #40, #41, and #88 were aligned with leucine-rich motifs of HIV-1 Rev (amino acid position 75 to 84, gi|16118296|gb|AAL12672.1|), HTLV-1 Rex (amino acid position 82 to 93, gi|7963889|gb|AAF71372.1), Mitogen-activated protein kinase kinase 1, MAPKK, (amino acid position 33 to 43, gi|5579478|ref|NP_002746.1|), Human homologue of mouse double minute 2, Hdm-2, (amino acid position 190 to 200, gi|4505137|ref|NP_002383.1|), and Protein kinase inhibitor, PKI (amino acid position 38 to 48, gi|203271|gb|AAA40867.1|).
Effect of GFP fused peptides and their mutants. A549.tTA cells were infected with retroviruses encoding GFP fusion peptides (#38 and its mutants) and stained with the cell tracker dye, Dil. After the infection, fluorescent intensity of GFP and Dil was examined with MoFlo. A growth ratio was obtained as the ratio of mean Dil fluorescent intensity for the GFP positive population relative to that of the GFP negative population and data are shown as mean±SE in duplicate. Mutated residues or non-identical residues of the C-terminus of cell division cycle 42 isoform 2, CDC42C, (amino acid position 183 to 191, gi|16357472|ref|NP_426359.1|) to #38 were underlined. As controls, entire GFP-C20 library, dsGFP and GFP fused p21C expressing A549.tTA cells were used.

The subject of data set [2] is A549.tTA cells. The data set can be described thus: Cell cycle analysis (Hoechst 33258) of cells expressing GFP fusion peptides. It counts as cell-based, human. The conditions noted are these: GFP low (R1) and GFP high (R2) populations. On the procedure:
A549.tTA cells expressing GFP fusion peptides were fixed with Cell Fixation/Permeabilization Kits (BD bioscience, Lexington, Ky., U.S.A.) as manufacturer's recommendation and stained with 5 mM Hoechst 33258 (Sigma, St. Louis, Mo., U.S.A.). GFP and Hoechst fluorescent intensity was analyzed with MoFlo.

Data set [3] deals with A549 cells. Nature of the data set: High content imaging of anti-proliferative synthetic K7 peptides (nuclei and apoptotic nuclei, 24 hours). Type of data set: cell-based, human. As to the method: A549 cells (American Type Culture Collection (ATCC), Manassas, Va., U.S.A.) were plated at 2000 cells/well in 96 well plates with F12K media supplemented with 10% fetal bovine serum and 1% penicillin/streptomycin and allowed to grow for 24 hours. Peptide dissolved in media was added to the cells to a final concentration ranging from 0.8 to 25 uM in triplicate. Following incubation with peptide for 24 hours, cells were fixed with 3.7% formaldehyde for 30 minutes, rinsed in PBS and stained with DAPI (Molecular Probes) to label nuclear DNA. Digital images were taken of the labeled nuclei in each well using a Zeiss Axiovert microscope, UV filter set and Photometrics camera.

The test system of data set [4] is A549 lung carcinoma cells. The data set can be described thus: Fluorescence microscopy examination of A549 cells exposed to lys7-peptides (nuclei, apoptosis, cell cycle stage, 48 hours). Type of data set: cell-based, human. On the procedure:
A549 tumor cells (American Type Culture Collection, Fairfax Va.) were plated at 2000 cells per well in 96 well plates with F12k media supplemented with 10% fetal bovine serum and 1% penicillin/streptomycin and allowed to grow for 24 hours. Peptide dissolved in media was added to the cells to a final concentration of 0.8 to 100 uM in triplicate. Following incubation with peptide for 24 or 48 hours, cells were fixed with 3.7% formaldehyde for 30 minutes, rinsed in PBS and stained with DAPI (Molecular Probes, OR) to label nuclear DNA. Digital images of the labeled nuclei in each well were taken using a Zeiss Axiovert microscope, UV filter set and Photometrics camera.

The subject of data set [5] is A549 cells expressing GFP fusion #38 and #41. The data set can be described thus: Displacement of cellular localization of GFP fusion peptides by synthetic analogues. It counts as cell-based, human. The conditions noted are these: 100 μM peptide, 5 hours. As to the method:
GFP fused #38, #40, and #41 were concentrated at the plasma membrane and granular cytoplasmic structures. […] We examined whether synthetic analogues can displace cellular localization of GFP fusion peptides. A549 cells expressing GFP fusion #38 and #41 were incubated with 100 μM of K7—#41, K7—#41M and K7—#40 for 5 hours and GFP localization was analyzed using a fluorescent microscope.

[6] abbreviates: Table 2, GFP fusion #38 and mutants in A549.tTA cells, ratio of mean Dil intensity, GFP positive relative to GFP negative, duplicate.
[7] abbreviates: Table 1, GFP fused peptides in A549.tTA cells, ratio of mean Dil fluorescent intensity, GFP positive relative to GFP negative population, five days.

Take “AALEPPETQPKRKCCIF [CDC42C, C-terminal 17 residues of cell division cycle 42 isoform 2, expressed as GFP-fused peptide, reference compound]”: the “anti-proliferative effect (cell tracker assay, in words)” value (“anti-proliferative effect” below) in data set [1] is reported as “no significant anti-proliferative activity”. Moreover, the “Growth Ratio (mean ± SE)” value in data set [1] (setting [6]) came out at 1.3 ± 0.1.

For “ASGLLKLVQAKRKCCIS (cysteine pairing not given here; also: GFP fusion) [#38(T1A)]”, the “Growth Ratio (mean ± SE)” value in data set [1] (setting [6]) was determined as 3.5 ± 0.2.

With “GRGCIFRWRRGARGMARAFK (also: GFP fusion) [#41(L12A/M16A/L18A)]”, the “anti-proliferative effect” value in data set [1] is listed as “no significant localization or anti-proliferative effect”. For the same substance, in data set [1] (setting [7]), the “Growth Ratio (mean ± SE)” value is given as 1.1 ± 0.1.

As for “GRGCIFRWRRGLRGMARAFK (also: GFP fusion) [#41(M16A/L18A)]”, in data set [1], the “anti-proliferative effect” value was “reduced the anti-proliferative effect”. In data set [1] (setting [7]), the “Growth Ratio (mean ± SE)” value amounted to 1.5.

As for “GRGCIFRWRRGLRGMMRAFK (also: GFP fusion) [#41(L18A)]”, the “anti-proliferative effect” value in data set [1] was “partial loss of the anti-proliferative effect”. Moreover, the “Growth Ratio (mean ± SE)” value in data set [1] (setting [7]) is 1.7.

In the case of “GRGCIFRWRRGLRGMMRLFK (also: GFP fusion) [#41, anti-proliferative peptide tested as GFP fusion]”, in data set [1], the “cell death after infection of retrovirus encoding GFP fused peptides” value (shortened to “cell death after infection”) is given as “did not observe massive cell death” and the “anti-proliferative effect” value is reported as “significant inhibitors of cell proliferation”. In addition, the “Growth Ratio (mean ± SE)” value in data set [1] (setting [7]) is on record as 2.7 ± 0.2. Further, in data set [2], the “cell cycle profile (DNA content, Hoechst 33258)” value (“cell cycle profile” for short) is on record as “arrested in G0/G1”.

As for “KRRQTSMTDFYHSKRRLIFSKRKP [p21C, reference compound]”, the “anti-proliferative effect” value in data set [1] is “significant antiproliferative effect”. Moreover, the “Growth Ratio (mean ± SE)” value in data set [1] (setting [7]) and in data set [1] (setting [6]) was 4.5 ± 0.8 each time.

Regarding “QAKRKCCIS ({GFP}-QAKRKCCIS; cysteine pairing not given here; also: fused to GFP C-terminus) [#38NΔ(1-8)]”, the “Growth Ratio (mean ± SE)” value in data set [1] (setting [6]) is 1.5 ± 0.1.

Turning to “RLRRICSGILLARRIAGAFVRPVRP (also: GFP fusion) [#88(I12AILI6A/118A)]”, the “Growth Ratio (mean ± SE)” value in data set [1] (setting [7]) is 1.1 ± 0.1.

Take “RLRRICSGILLIRRIAGAFVRPVRP (also: GFP fusion) [#88(L16A/L18A)]”: the “Growth Ratio (mean ± SE)” value in data set [1] (setting [7]) is listed as 1.1.

With “RLRRICSGILLIRRILGAFVRPVRP (also: GFP fusion) [#88(118A)]”, in data set [1] (setting [7]), the “Growth Ratio (mean ± SE)” value came out at 1.5.

RLRRICSGILLIRRILGIFVRPVRP [#88]: in data set [1], the “cell death after infection” value was “did not observe massive cell death” and the “anti-proliferative effect” value was “significant inhibitors of cell proliferation”. In data set [1] (setting [7]), the “Growth Ratio (mean ± SE)” value worked out at 2.7 ± 0.4. In data set [2], the “cell cycle profile” value is “no significant change in the DNA content profile”.

For the substance “RWDPTRLLRARFARALVRRSRPVRP (also: GFP fusion) [#40(F10A/L13A/M15A)]”, in data set [1] (setting [7]), the “Growth Ratio (mean ± SE)” value is listed as 1.3 ± 0.1.

On to “RWDPTRLLRFRFARALVRRSRPVRP (also: GFP fusion) [#40(L13A/M15A)]”, for which the “Growth Ratio (mean ± SE)” value in data set [1] (setting [7]) worked out at 1.6 ± 0.2.

With “RWDPTRLLRFRFLRALVRRSRPVRP (also: GFP fusion) [#40(M15A)]”, the “Growth Ratio (mean ± SE)” value in data set [1] (setting [7]) came out at 2.0.

Turning to “RWDPTRLLRFRFLRMLVRRSRPVRP (also: GFP fusion) [#40, anti-proliferative peptide tested as GFP fusion]”, in data set [1], the “cell death after infection” value is reported as “did not observe massive cell death” and the “anti-proliferative effect” value is listed as “significant inhibitors of cell proliferation”. The “Growth Ratio (mean ± SE)” value in data set [1] (setting [7]) turned out to be 2.4 ± 0.3. Besides, the “cell cycle profile” value in data set [2] is “no significant change in the DNA content profile”.

On to “TAGLLKLVQAKRKCCIS (cysteine pairing not given here; also: GFP fusion) [#38(S2A)]”, for which, in data set [1], the “anti-proliferative effect” value was “enhanced”. Also, the “Growth Ratio (mean ± SE)” value in data set [1] (setting [6]) was 5.5 ± 0.8.

Regarding “TSALLKLVQAKRKCCIS (cysteine pairing not given here; also: GFP fusion) [#38(G3A)]”, the “Growth Ratio (mean ± SE)” value in data set [1] (setting [6]) came to 2.7 ± 0.2.

With “TSGALKLVQAKRKCCIS (cysteine pairing not given here; also: GFP fusion) [#38(L4A)]”, the “Growth Ratio (mean ± SE)” value in data set [1] (setting [6]) came to 2.2 ± 0.1.

With “TSGLAKLVQAKRKCCIS (cysteine pairing not given here; also: GFP fusion) [#38(L5A)]”, the “Growth Ratio (mean ± SE)” value in data set [1] (setting [6]) is on record as 1.9 ± 0.2.

Take “TSGLLALVQAKRKCCIS (cysteine pairing not given here; also: GFP fusion) [#38(K6A)]”: the “anti-proliferative effect” value in data set [1] is given as “reduced anti-proliferative effect”. For the same substance, the “Growth Ratio (mean ± SE)” value in data set [1] (setting [6]) amounted to 1.4 ± 0.1.

Turning to “TSGLLKAVQAKRKCCIS (cysteine pairing not given here; also: GFP fusion) [#38(L7A)]”, the “Growth Ratio (mean ± SE)” value in data set [1] (setting [6]) was 2.0 ± 0.2.

As to “TSGLLKLAQAKRKCCIS (cysteine pairing not given here; also: GFP fusion) [#38(V8A)]”, the “Growth Ratio (mean ± SE)” value in data set [1] (setting [6]) turned out to be 2.7 ± 0.2.

On to “TSGLLKLVQAKRKACIS (not fully specified (N-terminus)) [#38(C14A)]”, for which the “Growth Ratio (mean ± SE)” value in data set [1] (setting [6]) came out at 1.1 ± 0.1.

For “TSGLLKLVQAKRKCCIS ({GFP}-TSGLLKLVQAKRKCCIS; not fully specified; cysteine pairing not given here) [#38, 17mer anti-proliferative peptide with CAAX box motif, tested fused to the C-terminus of GFP]”, in data set [1], the “cell death after infection” value is “did not observe massive cell death” and the “anti-proliferative effect” value was “significant inhibitors of cell proliferation”. In data set [1] (setting [6]), the “Growth Ratio (mean ± SE)” value is recorded as 2.5 ± 0.2. In data set [2], the “cell cycle profile” value is reported as “arrested in G0/G1”.

Consider “synthetic #40 fused with seven Lys (K7) via a linker (GGEEAAKA) at the N-terminus [K7—#40]”, for which the apoptotic nuclei result in data set [3] is listed as “increase in apoptotic nuclei”. Moreover, the “number of observed cell nuclei remaining” value in data set [4] (A549 cells, 48 hours exposure, increasing doses) was “ca. 10 % of original values”. Also, in data set [4] (asynchronously growing A549 cells, 48 hours, remaining cells that have not undergone apoptosis), the “cell cycle stage distribution” value was “depletion of G1 cells, a complete loss of S and G2 cells at 100 mM levels, and an increase in M phase cells”. The “change of cellular localization of GFP fusion #41” value in data set [5] is “these changes were not seen”.
